According to ChEMBL document CHEMBL1144945, “Development of progesterone receptor antagonists from 1,2-dihydrochromeno[3,4-f]quinoline agonist pharmacophore” (Bioorg Med Chem Lett, 2003):
Calls of active or inactive are those of the source.

How the values were obtained:
Progesterone receptor [1] = target: T1, Progesterone receptor (Homo sapiens, UniProt P06401)
T1 sequence (P06401 whole entry): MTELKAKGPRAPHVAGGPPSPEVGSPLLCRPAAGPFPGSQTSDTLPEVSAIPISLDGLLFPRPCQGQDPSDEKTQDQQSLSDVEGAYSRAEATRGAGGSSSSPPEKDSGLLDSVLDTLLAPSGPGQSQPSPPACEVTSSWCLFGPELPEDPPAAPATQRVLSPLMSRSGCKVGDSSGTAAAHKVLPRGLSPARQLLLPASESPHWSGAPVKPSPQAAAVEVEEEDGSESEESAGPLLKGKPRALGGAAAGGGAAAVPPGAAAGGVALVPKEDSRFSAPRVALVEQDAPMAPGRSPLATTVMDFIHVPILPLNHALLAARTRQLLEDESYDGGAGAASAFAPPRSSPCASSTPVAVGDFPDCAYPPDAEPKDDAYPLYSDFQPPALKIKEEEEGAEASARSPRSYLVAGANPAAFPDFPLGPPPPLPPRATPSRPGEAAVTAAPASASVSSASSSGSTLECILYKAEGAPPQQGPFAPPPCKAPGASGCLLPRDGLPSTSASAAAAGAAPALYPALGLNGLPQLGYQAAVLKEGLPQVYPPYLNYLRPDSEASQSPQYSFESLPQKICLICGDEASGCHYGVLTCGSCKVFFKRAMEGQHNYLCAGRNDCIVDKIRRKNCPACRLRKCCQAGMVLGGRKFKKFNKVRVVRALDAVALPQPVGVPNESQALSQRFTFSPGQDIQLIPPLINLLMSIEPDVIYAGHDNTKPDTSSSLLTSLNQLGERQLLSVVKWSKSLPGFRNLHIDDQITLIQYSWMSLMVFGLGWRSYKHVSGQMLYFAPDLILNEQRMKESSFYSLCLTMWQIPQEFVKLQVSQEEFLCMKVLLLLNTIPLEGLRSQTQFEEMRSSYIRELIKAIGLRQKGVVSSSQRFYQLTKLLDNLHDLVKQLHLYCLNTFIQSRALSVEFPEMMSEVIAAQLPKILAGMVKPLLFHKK
Description: Antagonistic activity at human progesterone receptor in CV-1 cells.

Progesterone receptor [2] = target: T1, Progesterone receptor; experiment: Binding towards human progesterone receptor; Not tested
Progesterone receptor [3] = target: T1, Progesterone receptor; experiment: Effective concentration for human progesterone in T47D human breast cancer cell; not active (<20% efficacy and/or >10 mM potency); format: cell-based; settings: cancer cell lines
Progesterone receptor [4] = target: T1, Progesterone receptor; remark: listed apart in the source
Description: Inhibition of human progesterone receptor activation in T47D human breast cancer cell.

[5] = target: T2, Progesterone receptor (Homo sapiens) (UniProt P06401); experiment: Agonist efficacy for human progesterone receptor in T47D human breast cancer cell; not active (<20% efficacy and/or >10 mM potency); format: functional, cell-based
T2 sequence (whole entry): T1 sequence (P06401 whole entry)

[6] = target: T2, Progesterone receptor (Homo sapiens); experiment: Antagonist efficacy for human progesterone receptor in CV-1 cells; not active (<20% efficacy and/or >10 mM potency); format: functional, cell-based
Progesterone receptor [7] = target: T1, Progesterone receptor; experiment: Effective concentration for antagonistic activity towards human progesterone receptor in CV-1 cells; not active (<20% efficacy and/or >10 mM potency); format: functional, cell-based
Progesterone receptor [8] = target: T1, Progesterone receptor; experiment: Effective concentration for human progesterone receptor in T47D human breast cancer cell; not active (<20% efficacy and/or >10 mM potency); settings: cancer cell lines
Progesterone receptor [9] = target: T1, Progesterone receptor; experiment: Inhibition of human progesterone receptor in T47D human breast cancer cell; not active (<20% efficacy and/or >10 mM potency); format: cell-based
Progesterone receptor [10] = target: T1, Progesterone receptor; remark: listed apart in the source
Description: Binding affinity at human progesterone receptor.

| EC50 (Progesterone receptor [1]) [nM] | Ki (Progesterone receptor [2]) [nM] | EC50 (Progesterone receptor [3]) | IC50 (Progesterone receptor [4]) [nM] | Efficacy [5] | Efficacy [6] | EC50 (Progesterone receptor [7]) | EC50 (Progesterone receptor [8]) | IC50 (Progesterone receptor [9]) | Ki (Progesterone receptor [10]) [nM] | Structure (SMILES) |
| --- | --- | --- | --- | --- | --- | --- | --- | --- | --- | --- |
| 576 | 290 |  |  |  |  |  |  |  |  | CC1=CC(C)(C)Nc2ccc3c(c21)COc1c-3cc(Br)c(C=O)c1F |
| 576 |  | Not Active | 782 | inactive |  |  |  |  |  | CC1=CC(C)(C)Nc2ccc3c(c21)COc1c(Cl)cccc1-3 |
|  |  |  |  | inactive | inactive | Not Active | Not Active | Not Active | > 1000 | CC1=CC(C)(C)Nc2ccc3c(c21)COc1cc(C(F)(F)F)ccc1-3 |
